Test results published in patent US4540700A, “Treatment of diabetic complications with certain spiro-imidazolidine-diones” (Alcon Laboratories, Inc., priority 1984, dated 1985).

Test system: cataract formation in galactocemic rats
Assay: in vivo dose response by intubation (per oral) in galactocemic rats, cataract (vacuole) formation
Parameters: species or system Charles River CD (Sprague-Dawley derived) male rats
Experimental: B. In vivo dose response studies were conducted to test the in vivo activity of the following compounds by intubation (per oral) in galactocemic rats on a 30% galactose diet previously described:
Stock suspensions of the test compounds and all dilutions of the compound were formulated with 0.03% by weight Tween 80.
Healthy, Charles River CD (outbred albino, Sprague-Dawley derived) male rats, aged 20-30 days, without observable ocular defects and ranging in weight from 35-45 grams, were acclimated to experimental conditions (in quarantine) for two days prior to beginning the study.
Rats were individually assigned to one of twenty-three groups according to a random number schedule. Two rats, belonging to the same drug-diet treatment group, were housed per cage. Treatment and control groups consisted of six (6) rats each with no replacement in the event of death, and were designated as follows:
Lenses of all eyes were examined with a hand-held ophthalmoscope in the early stages of cataract development and a penlight for the stages, snowflake-like, snowflake, and nuclear cataract. Lens grading occurred every day for the first ten study days, and then every other day until study Day 14.
The relative potency determination was made at 7 drug levels over half log dose intervals. The response (percent cataracts formed and/or the time to cataract formation) was plotted against mg/kg and/or moles/kg.
The study was directed to the suppression and/or elimination of the initial stages of cataract development characterized by vacuoles or snowflake-likeopacities only. It was assumed therefore that suppression and/or elimination of vacuoles or lens opacification by the test drugs affects the transport, absorption and/or metabolism of galactose in such a manner as to prevent subsequent osmotic disturbances normally leading to tissue degeneration and advanced cataract. Advanced cataract defined as stages 2-4 of the Sipple classification was assumed to be of secondary importance to the etiology of cataract inhibition.
In the event where cataract stage other than vacuole formed, such as snowflake-like opacities, this cataract was counted similarly as vacuole in percent cataract formation.
This study yielded this expected effect in the control groups.
All animals were fed Purina Laboratory Chow and water, ad libitum, for the two day acclimation period. All drugs were dosed orally by intubation using an animal feeding needle (Popper and Sons), 18 or 20 gauge, attached to a 1 or 3 ml syringe. Once the dosing time schedule was established, the schedule was followed throughout the study to compensate for any diurnal variation.
The animals were kept on a twelve hour day/night cycle. The temperature and humidity were determined each day at the scheduled dosing time of 1:00 p.m.
The animals were weighed every other day and adjustments to dosage amounts to compensate for weight gain were made each day prior to the dose time. All food was routinely withheld from all animal groups for four hours (9:00 a.m.) prior to the drug dose and restored two hours (3:00 p.m.) post-dose. Otherwise sufficient amounts of chow or diet mixture were maintained in the food hopper to allow the animals to eat ad libitum. There were two days of drug dosage with the animals remaining on Purina Laboratory Chow (Days 1 and 2). The 30% galactose diet mixture was introduced to the animals two hours post-dose on Day 3 which constituted Day 1 of the study.
All eyes were examined with a hand-held ophthalmoscope and/or penlight at the times designated in the Experimental Design section.
It has been found in previous studies that dilation of the eye with a mydriactic (i.e. Mydriacyl) is not necessary for accurate grading, due to the semi-transparent nature of the rat iris. In the early stages (i.e., grades -, ±, and +) the lens was observed by reflecting the ophthalmoscope beam off the retina back through the lens and iris. Using this technique, vacuoles appear as dark, almost opaque patches. […]

O=C1NC(=O)C2(N1)c1ccccc1-c1ccc(F)cc12 (racemic) [Compound L, dl-Spiro(2-fluorofluoren-9,4'-imidazolidine)-2',5'-dione] was tested, and the “Percent of Rat Eyes With at Least Vacuoles Formed” value (“Percent” for short) (0.126 mg/kg p.o., Day 0) was 0%, the “Percent” value (0.126 mg/kg p.o., Day 1) was 0% and the “Percent” value (0.126 mg/kg p.o., Day 2) was 0%. For the same compound, the “Percent” value (0.126 mg/kg p.o., Day 3) was 0%, the “Percent” value (0.126 mg/kg p.o., Day 4) was 0% and the “Percent” value (0.126 mg/kg p.o., Day 5) was 0%. For the same compound, the “Percent” value (0.126 mg/kg p.o., Day 6) was 33%, the “Percent” value (0.126 mg/kg p.o., Day 7) was 33% and the “Percent” value (0.126 mg/kg p.o., Day 8) was 50%. The “Percent” value (0.126 mg/kg p.o., Day 9) was 50%, the “Percent” value (0.126 mg/kg p.o., Day 10) was 50% and the “Percent” value (0.126 mg/kg p.o., Day 12) was 83%. The “Percent” value (0.126 mg/kg p.o., Day 14) was 83%, the “Percent” value (0.4 mg/kg p.o., Day 0) was 0% and the “Percent” value (0.4 mg/kg p.o., Day 1) was 0%. The “Percent” value (0.4 mg/kg p.o., Day 2) was 0%, the “Percent” value (0.4 mg/kg p.o., Day 3) was 0% and the “Percent” value (0.4 mg/kg p.o., Day 4) was 0%. For the same compound, the “Percent” value (0.4 mg/kg p.o., Day 5) was 0%, the “Percent” value (0.4 mg/kg p.o., Day 6) was 0% and the “Percent” value (0.4 mg/kg p.o., Day 7) was 8%. The “Percent” value (0.4 mg/kg p.o., Day 8) was 42%, the “Percent” value (0.4 mg/kg p.o., Day 9) was 42% and the “Percent” value (0.4 mg/kg p.o., Day 10) was 67%. For the same compound, the “Percent” value (0.4 mg/kg p.o., Day 12) was 83%, the “Percent” value (0.4 mg/kg p.o., Day 14) was 100% and the “Percent” value (1.26 mg/kg p.o., Day 0) was 0%. For the same compound, the “Percent” value (1.26 mg/kg p.o., Day 1) was 0%, the “Percent” value (1.26 mg/kg p.o., Day 2) was 0% and the “Percent” value (1.26 mg/kg p.o., Day 3) was 0%. For the same compound, the “Percent” value (1.26 mg/kg p.o., Day 4) was 0%, the “Percent” value (1.26 mg/kg p.o., Day 5) was 0% and the “Percent” value (1.26 mg/kg p.o., Day 6) was 0.0%. For the same compound, the “Percent” value (1.26 mg/kg p.o., Day 6, listed as 2-fluoro) was 0%, the “Percent” value (1.26 mg/kg p.o., Day 7) was 0% and the “Percent” value (1.26 mg/kg p.o., Day 8) was 0%. The “Percent” value (1.26 mg/kg p.o., Day 9) was 0%, the “Percent” value (1.26 mg/kg p.o., Day 10) was 0% and the “Percent” value (1.26 mg/kg p.o., Day 12) was 0%. The “Percent” value (1.26 mg/kg p.o., Day 14) was 0%, the “Percent” value (4.0 mg/kg p.o., Day 0) was 0% and the “Percent” value (4.0 mg/kg p.o., Day 1) was 0%. For the same compound, the “Percent” value (4.0 mg/kg p.o., Day 2) was 0%, the “Percent” value (4.0 mg/kg p.o., Day 3) was 0% and the “Percent” value (4.0 mg/kg p.o., Day 4) was 0%. For the same compound, the “Percent” value (4.0 mg/kg p.o., Day 5) was 0%, the “Percent” value (4.0 mg/kg p.o., Day 6) was 0.0% and the “Percent” value (4.0 mg/kg p.o., Day 6, listed as 2-fluoro) was 0%. For the same compound, the “Percent” value (4.0 mg/kg p.o., Day 7) was 0.0%, the “Percent” value (4.0 mg/kg p.o., Day 7, listed as 2-fluoro) was 0% and the “Percent” value (4.0 mg/kg p.o., Day 8) was 0.0%.
